{"source": "patent EP0133259A2", "about": "“Aminoalkyl-substituted benzene derivatives, process for production thereof, and pharmaceutical composition thereof” (KOWA COMPANY, LTD., priority 1983, dated 1985)", "note": "Where a name gives a salt, the structure may show the parent alone."}
{"tested_on": "Chloroform-Induced Arrhythmia", "test": "Activity on chloroform-induced arrhythmia", "assay_type": "in vivo, ICR-strain mice", "conditions": "100 mg/kg orally, 10 mice per group; ventricular fibrillation after chloroform vapor", "experimental": "(§1) Activity on Chloroform-Induced Arrhythmia:-ICR-strain mice having a body weight of 20 to 30 g (10 per group) were used, and the test compound was administered orally in a dose of 100 mg/kg. The mice were put in a 1-liter beaker, and observed for 20 minutes for their symptoms or conditions. Then, they were placed in a vessel saturated with a vapor of chloroform, and the time which elapsed until the animals ceased to breathe was measured. After the stopping of the breathing, the mice were taken out from the vessel and their cardiograms were taken. The rates of onset of ventricular tachycardia (VT) and ventricular fibrillation (VF) and their conditions were observed. The duration of activity was determined by using as a standard the time during which the mice were put in the chloroform- saturated vessel. […] Lidocaine was used as a comparative drug."}
{"smiles": "COc1ccc(OCC(F)(F)F)cc1NC(=O)CC(C)N", "note": "(stereo not drawn) [Example 3, 3-Amino-2'-methoxy-5'-(2,2,2-trifluoroethoxy)-butyranilide-hemifumarate]", "Antiarrhythmic activity: Rate of onset of VF": "0/10"}
{"smiles": "COc1ccc(OCCO[N+](=O)[O-])cc1OCC(C)N", "note": "(stereo not drawn) [Example 4, 1-[2-Methoxy-5-(2-nitroxyethoxy)phenoxy]-2-propanamine.maleate]", "Antiarrhythmic activity: Rate of onset of VF": "0/10"}
{"smiles": "Cc1cc(OCCO[N+](=O)[O-])cc(C)c1NC(=O)C(C)N", "note": "(stereo not drawn) [Example 6, 2-Amino-2',6'-dimethyl-4'-(2-nitroxyethoxy)-propionanilide·hydrochloride]", "Antiarrhythmic activity: Rate of onset of VF": "0/10"}
{"smiles": "Cc1ccc(OCCO[N+](=O)[O-])cc1NC(=O)CC(C)N", "note": "(stereo not drawn) [Example 22, 3-Amino-2'-methyl-5'-(2-nitroxyethoxy)butyr.- anilide-hydrochloride]", "Antiarrhythmic activity: Rate of onset of VF": "0/10"}
{"smiles": "CC(N)C(=O)Nc1cc(OCCO[N+](=O)[O-])ccc1F", "note": "(stereo not drawn) [Example 24, 2-Amino-2'-fluoro-5'-(2-nitroxyethoxy)propionanilide]", "Antiarrhythmic activity: Rate of onset of VF": "0/10"}
{"smiles": "Cc1ccc(OCC(F)(F)F)cc1NC(=O)C(C)N", "note": "(stereo not drawn) [Example 38, 2-Amino-2'-methyl-5'-(2,2,2-trifluoroethoxy)-propionanilide]", "Antiarrhythmic activity: Rate of onset of VF": "2/10"}
{"smiles": "Cc1ccc(OCC(F)(F)F)cc1NC(=O)CC(C)N", "note": "(stereo not drawn) [Example 40, 3-Amino-2'-methyl-5'-(2,2,2-trifluoroethoxy)-butyranilide·hydrochloride]", "Antiarrhythmic activity: Rate of onset of VF": "0/10"}
{"smiles": "Cc1cc(OCC(F)(F)F)cc(C)c1NC(=O)C(C)N", "note": "(stereo not drawn) [Example 41, 2-Amino-2',6^1-dimethyl-4^1-(2,2,2-trifluoroethoxy)propionanilide·hydrochloride]", "Antiarrhythmic activity: Rate of onset of VF": "1/10"}
{"smiles": "CCN(CC)CC(=O)Nc1c(C)cccc1C", "note": "[Lidocaine, reference compound]", "Antiarrhythmic activity: Rate of onset of VF": "2/10"}
{"tested_on": "Chloroform-Induced Arrhythmia", "test": "Activity on chloroform-induced arrhythmia", "assay_type": "in vivo, ICR-strain mice", "conditions": "100 mg/kg orally, 10 mice per group; ventricular tachycardia after chloroform vapor", "experimental": "as §1"}
{"smiles": "COc1ccc(OCC(F)(F)F)cc1NC(=O)CC(C)N", "note": "(stereo not drawn) [Example 3, 3-Amino-2'-methoxy-5'-(2,2,2-trifluoroethoxy)-butyranilide-hemifumarate]", "Antiarrhythmic activity: Rate of onset of VT": "2/10"}
{"smiles": "COc1ccc(OCCO[N+](=O)[O-])cc1OCC(C)N", "note": "(stereo not drawn) [Example 4, 1-[2-Methoxy-5-(2-nitroxyethoxy)phenoxy]-2-propanamine.maleate]", "Antiarrhythmic activity: Rate of onset of VT": "4/10"}
{"smiles": "Cc1cc(OCCO[N+](=O)[O-])cc(C)c1NC(=O)C(C)N", "note": "(stereo not drawn) [Example 6, 2-Amino-2',6'-dimethyl-4'-(2-nitroxyethoxy)-propionanilide·hydrochloride]", "Antiarrhythmic activity: Rate of onset of VT": "1/10"}
{"smiles": "Cc1ccc(OCCO[N+](=O)[O-])cc1NC(=O)CC(C)N", "note": "(stereo not drawn) [Example 22, 3-Amino-2'-methyl-5'-(2-nitroxyethoxy)butyr.- anilide-hydrochloride]", "Antiarrhythmic activity: Rate of onset of VT": "0/10"}
{"smiles": "CC(N)C(=O)Nc1cc(OCCO[N+](=O)[O-])ccc1F", "note": "(stereo not drawn) [Example 24, 2-Amino-2'-fluoro-5'-(2-nitroxyethoxy)propionanilide]", "Antiarrhythmic activity: Rate of onset of VT": "2/10"}
{"smiles": "Cc1ccc(OCC(F)(F)F)cc1NC(=O)C(C)N", "note": "(stereo not drawn) [Example 38, 2-Amino-2'-methyl-5'-(2,2,2-trifluoroethoxy)-propionanilide]", "Antiarrhythmic activity: Rate of onset of VT": "5/10"}
{"smiles": "Cc1ccc(OCC(F)(F)F)cc1NC(=O)CC(C)N", "note": "(stereo not drawn) [Example 40, 3-Amino-2'-methyl-5'-(2,2,2-trifluoroethoxy)-butyranilide·hydrochloride]", "Antiarrhythmic activity: Rate of onset of VT": "0/10"}
{"smiles": "Cc1cc(OCC(F)(F)F)cc(C)c1NC(=O)C(C)N", "note": "(stereo not drawn) [Example 41, 2-Amino-2',6^1-dimethyl-4^1-(2,2,2-trifluoroethoxy)propionanilide·hydrochloride]", "Antiarrhythmic activity: Rate of onset of VT": "0/10"}
{"smiles": "CCN(CC)CC(=O)Nc1c(C)cccc1C", "note": "[Lidocaine, reference compound]", "Antiarrhythmic activity: Rate of onset of VT": "0/10"}
{"tested_on": "Chloroform-Induced Arrhythmia", "test": "Activity on chloroform-induced arrhythmia", "assay_type": "in vivo, ICR-strain mice", "conditions": "100 mg/kg orally; relative to the duration time of Lidocaine (+)", "experimental": "as §1"}
{"smiles": "COc1ccc(OCC(F)(F)F)cc1NC(=O)CC(C)N", "note": "(stereo not drawn) [Example 3, 3-Amino-2'-methoxy-5'-(2,2,2-trifluoroethoxy)-butyranilide-hemifumarate]", "Antiarrhythmic activity: Duration of activity": "+++"}
{"smiles": "COc1ccc(OCCO[N+](=O)[O-])cc1OCC(C)N", "note": "(stereo not drawn) [Example 4, 1-[2-Methoxy-5-(2-nitroxyethoxy)phenoxy]-2-propanamine.maleate]", "Antiarrhythmic activity: Duration of activity": "++"}
{"smiles": "Cc1cc(OCCO[N+](=O)[O-])cc(C)c1NC(=O)C(C)N", "note": "(stereo not drawn) [Example 6, 2-Amino-2',6'-dimethyl-4'-(2-nitroxyethoxy)-propionanilide·hydrochloride]", "Antiarrhythmic activity: Duration of activity": "++"}
{"smiles": "Cc1ccc(OCCO[N+](=O)[O-])cc1NC(=O)CC(C)N", "note": "(stereo not drawn) [Example 22, 3-Amino-2'-methyl-5'-(2-nitroxyethoxy)butyr.- anilide-hydrochloride]", "Antiarrhythmic activity: Duration of activity": "++"}
{"smiles": "CC(N)C(=O)Nc1cc(OCCO[N+](=O)[O-])ccc1F", "note": "(stereo not drawn) [Example 24, 2-Amino-2'-fluoro-5'-(2-nitroxyethoxy)propionanilide]", "Antiarrhythmic activity: Duration of activity": "+"}
{"smiles": "Cc1ccc(OCC(F)(F)F)cc1NC(=O)C(C)N", "note": "(stereo not drawn) [Example 38, 2-Amino-2'-methyl-5'-(2,2,2-trifluoroethoxy)-propionanilide]", "Antiarrhythmic activity: Duration of activity": "+"}
{"smiles": "Cc1ccc(OCC(F)(F)F)cc1NC(=O)CC(C)N", "note": "(stereo not drawn) [Example 40, 3-Amino-2'-methyl-5'-(2,2,2-trifluoroethoxy)-butyranilide·hydrochloride]", "Antiarrhythmic activity: Duration of activity": "+++"}
{"smiles": "Cc1cc(OCC(F)(F)F)cc(C)c1NC(=O)C(C)N", "note": "(stereo not drawn) [Example 41, 2-Amino-2',6^1-dimethyl-4^1-(2,2,2-trifluoroethoxy)propionanilide·hydrochloride]", "Antiarrhythmic activity: Duration of activity": "+++"}
{"smiles": "CCN(CC)CC(=O)Nc1c(C)cccc1C", "note": "[Lidocaine, reference compound]", "Antiarrhythmic activity: Duration of activity": "+"}
{"tested_on": "Chloroform-Induced Arrhythmia", "test": "Activity on chloroform-induced arrhythmia", "assay_type": "in vivo, ICR-strain mice", "conditions": "100 mg/kg orally; symptoms observed for 20 minutes, indicated when the same tendency was seen in all subjects", "experimental": "as §1"}
{"smiles": "CCN(CC)CC(=O)Nc1c(C)cccc1C", "note": "[Lidocaine, reference compound]", "Condition": "Weak sedation"}
{"tested_on": "blood pressure", "test": "Hypotensive action (average blood pressure via carotid cannula, conscious animals)", "assay_type": "in vivo, Mice", "conditions": "30 mg/kg orally; 10 minutes after the administration", "experimental": "(§2) Hypotensive action:- • Mice having a body weight of about 30 g (5 per group) were used. Under anaesthesia with pentobarbital, the carotid was […] from each animal. A cannula was inserted into the animal and connected to a pressure transducer. A tracheal cannula was applied, and the animal was fixed on its back. After the animals awoke from anesthesia, their average blood pressures were measured by the pressure transducer.\n(§3) The drug was orally administered in a dose of 30 mg/kg, and changes in the blood pressure were measured. Physiological saline was administered to a control group.\n(§4) The drug used in Test Example 2 was the compound prepared in Example 6."}
{"smiles": "Cc1cc(OCCO[N+](=O)[O-])cc(C)c1NC(=O)C(C)N", "note": "(stereo not drawn) [Example 6, 2-Amino-2',6'-dimethyl-4'-(2-nitroxyethoxy)-propionanilide·hydrochloride]", "Average blood pressure": "73.3 ±8.5 (*) mmHg"}
{"tested_on": "blood pressure", "test": "Hypotensive action (average blood pressure via carotid cannula, conscious animals)", "assay_type": "in vivo, Mice", "conditions": "30 mg/kg orally; 30 minutes after the administration", "experimental": "as §2, §3, §4"}
{"smiles": "Cc1cc(OCCO[N+](=O)[O-])cc(C)c1NC(=O)C(C)N", "note": "(stereo not drawn) [Example 6, 2-Amino-2',6'-dimethyl-4'-(2-nitroxyethoxy)-propionanilide·hydrochloride]", "Average blood pressure": "76.4 ±7.8 (*) mmHg"}
{"tested_on": "blood pressure", "test": "Hypotensive action (average blood pressure via carotid cannula, conscious animals)", "assay_type": "in vivo, Mice", "conditions": "30 mg/kg orally; 60 minutes after the administration", "experimental": "as §2, §3, §4"}
{"smiles": "Cc1cc(OCCO[N+](=O)[O-])cc(C)c1NC(=O)C(C)N", "note": "(stereo not drawn) [Example 6, 2-Amino-2',6'-dimethyl-4'-(2-nitroxyethoxy)-propionanilide·hydrochloride]", "Average blood pressure": "77.4 ±8.1 (*) mmHg"}
{"tested_on": "blood pressure", "test": "Hypotensive action (average blood pressure via carotid cannula, conscious animals)", "assay_type": "in vivo, Mice", "conditions": "30 mg/kg orally; 120 minutes after the administration", "experimental": "as §2, §3, §4"}
{"smiles": "Cc1cc(OCCO[N+](=O)[O-])cc(C)c1NC(=O)C(C)N", "note": "(stereo not drawn) [Example 6, 2-Amino-2',6'-dimethyl-4'-(2-nitroxyethoxy)-propionanilide·hydrochloride]", "Average blood pressure": "80.3 ±8.0 (**) mmHg"}
{"tested_on": "blood pressure", "test": "Hypotensive action (average blood pressure via carotid cannula, conscious animals)", "assay_type": "in vivo, Mice", "conditions": "before administration; 5 mice per group", "experimental": "as §2, §3, §4", "units": {"Average blood pressure": "mmHg"}}
{"smiles": "Cc1cc(OCCO[N+](=O)[O-])cc(C)c1NC(=O)C(C)N", "note": "(stereo not drawn) [Example 6, 2-Amino-2',6'-dimethyl-4'-(2-nitroxyethoxy)-propionanilide·hydrochloride]", "Average blood pressure": "86.3 ±6.8"}
